Here are results for 23 compounds from patent US20090280153A1, “electrical devices, anti-scarring agents, and therapeutic compositions” (Angiotech International AG, priority 2005, published 2009).

Structures are written as SMILES. Like-named read-outs stand apart in the source and are kept apart here.

For experiment [1], the system named is fibroblasts and/or smooth muscle cells, macrophages. As to the kind of experiment: assays described herein (in vitro screening assays for anti-fibrosis agents). It counts as cell-based. The following applies: approximately, read-out: IC50 range in the assays described herein. The source says: Agents which may inhibit fibrosis or gliosis may be readily identified based upon in vitro and in vivo (animal) models, such as those provided in Examples 39-52. Depending on their mechanisms, various agents may be effective in some, but not all screening assays for anti-fibrosis or anti-gliosis agents, and different agents may be effective in different screening assays. Agents which inhibit fibrosis can be identified through in vivo models including inhibition of intimal hyperplasia development in the rat balloon carotid artery model (Examples 44 and 61). The assays set forth in Examples 43 and 51 may be used to determine whether an agent is able to inhibit cell proliferation in fibroblasts and/or smooth muscle cells. In one aspect of the invention, the agent has an IC50 for inhibition of cell proliferation within a range of about 10^−6 to about 10^−10 M. In certain embodiments, the agent may have an IC50 for inhibition of cell proliferation of less than about 10,000 nM; or less than about 1000 nM; or less than about 100 nM. The assay set forth in Example 47 may be used to determine whether an agent may inhibit migration of fibroblasts and/or smooth muscle cells. In one aspect of the invention, the agent has an IC50 for inhibition of cell migration within a range of about 10^−6 to about 10^−9M. In certain embodiments, the agent may have an IC50 for inhibition of fibroblast or smooth muscle cell migration of less than about 10,000 nM; or less than about 1000 nM; or less than about 100 nM. Assays set forth herein may be used to determine whether an agent is able to inhibit inflammatory processes, including nitric oxide production in macrophages (Example 39), and/or TNF-alpha production by macrophages (Example 40), and/or IL-1 beta production by macrophages (Example 48), and/or IL-8 production by macrophages (Example 49), and/or inhibition of MCP-1 by macrophages (Example 50). In one aspect of the invention, the agent has an IC50 for inhibition of any one of these inflammatory processes within a range of about 10^−6 to about 10^−10M. In certain embodiments, the agent may have an IC50 for any one of these inflammatory processes of less than about 10,000 nM; or less than about 1000 nM; or less than about 100 nM. The assay set forth in Example 45 may be used to determine whether an agent is able to inhibit MMP production. In one aspect of the invention, the agent has an IC50 for inhibition of MMP production within a range of about 10^−4 to about 10^−8M. In certain embodiments, the agent may have an IC50 for inhibition of MMP production of less than about 10,000 nM; or less than about 1000 nM; or less than about 100 nM. The assay set forth in Example 46 (also known as the CAM assay) may be used to determine whether an agent is able to inhibit angiogenesis. In one aspect of the invention, the agent has an IC50 for inhibition of angiogenesis within a range of about 10^−6 to about 10^−10M. In certain embodiments, the agent may have an IC50 for inhibition of angiogenesis of less than about 10,000 nM; or less than about 1000 nM; or less than about 100 nM. The assay set forth in Example 52 may be used to determine whether an agent is able to inhibit MMP-1. In one aspect of the invention, the agent has an IC50 for inhibition of MMP-1 within a range of about 10^−6 to about 10^−10M. In certain embodiments, the agent may have an IC50 for inhibition of MMP-1 of less than about 10,000 nM; or less than about 1000 nM; or less than about 100 nM. Agents which reduce the formation of surgical adhesions may be identified through in vivo models including the rabbit surgical adhesions model (Example 42) and the rat caecal sidewall model (Example 41). […]

The test system of experiment [2] is bacteria and fungi. The note with it: surface drug concentration is to exceed this value; cited from earlier work.
The subject of experiment [3] is collagenase and stromelysin. In words: IL-1 induced collagenase and stromelysin expression in chondrocytes (FIGS. 4D, 5A-H). It counts as cell-based. The following applies: pretreatment with paclitaxel; FIG. 4D.
Experiment [4] concerns AP-1. As to the kind of experiment: IL-1 induced AP-1 binding activity in chondrocyte lysates (FIG. 4C). The following applies: chondrocytes pretreated with paclitaxel. It counts as cell-based.
The mark [5] stands for this setting: high potency (1-100) or mid-potency (100-500) agents.

The term IC50 denotes the concentration at which inhibition is half-maximal.

As for `C/C=C(/C)C(=O)O[C@H]1C(C)=C2[C@H]([C@@H]1OC(=O)CCCCCCC)[C@@](C)(OC(C)=O)C[C@H](OC(=O)CCC)[C@@]1(O)[C@H]2OC(=O)[C@@]1(C)O` [thapsigargin], in experiment [1] (setting [5]), the concentration for half-maximal inhibition (IC50) fell in the range of 1 to 100 nM.

Turning to `CCC(C)(C)C(=O)O[C@H]1C[C@@H](C)C=C2C=C[C@H](C)[C@H](CC[C@@H]3C[C@@H](O)CC(=O)O3)[C@H]21` [simvastatin], in experiment [1] (low potency agents), the concentration for half-maximal inhibition (IC50) lay in the range of 500 to 1000 nM.

As to `COCc1c(C(C)C)nc(C(C)C)c(/C=C/[C@@H](O)C[C@@H](O)CC(=O)O)c1-c1ccc(F)cc1` [cerivastatin], the half-maximal inhibitory concentration (IC50) in experiment [1] (setting [5]) lay in the range of 1 to 100 nM.

As to `C=CC[C@@H]1/C=C(\C)C[C@H](C)C[C@H](OC)[C@H]2O[C@@](O)(C(=O)C(=O)N3CCCC[C@H]3C(=O)O[C@H](/C(C)=C/[C@@H]3CC[C@@H](O)[C@H](OC)C3)[C@H](C)[C@@H](O)CC1=O)[C@H](C)C[C@@H]2OC` [tacrolimus], the concentration for half-maximal inhibition (IC50) in experiment [1] (setting [5]) was in the range of 1 to 100 nM.

In the case of `C[C@@H]1C[C@H]2O[C@@H]2/C=C\C=C\C(=O)Cc2c(Cl)c(O)cc(O)c2C(=O)O1` [radicicol], in experiment [1] (setting [5]), the concentration for half-maximal inhibition (IC50) is 1 to 100 nM.

For the compound `C[C@]12C=CC(=O)C=C1CC[C@@H]1[C@@H]2[C@@H](O)C[C@@]2(C)[C@H]1CC[C@]2(O)C(=O)CO` [prednisolone], the IC50 in experiment [1] (setting [5]) lay within 100 to 500 nM.

As to `O=C[C@@H](O)[C@@H](O)[C@H](O)[C@H](O)COP(=O)(O)O` [mannose-6-phosphate], the half-inhibitory concentration (IC50) in experiment [1] (setting [5]) is 100 to 500 nM.

On to `O=c1[nH]cc(F)c(=O)[nH]1` [5-fluorouracil, 5-Fluorouracil], for which the “concentration known to be lethal to bacteria and fungi” value (from here on “concentration known to be lethal”) in experiment [2] is 10^−4 M.

With `CCOC(=O)O[C@]1(C(=O)OCCl)CC[C@H]2[C@@H]3CCC4=CC(=O)C=C[C@]4(C)[C@H]3[C@@H](O)C[C@@]21C` [loteprednol etabonate], the concentration for half-maximal inhibition (IC50) in experiment [1] (setting [5]) lay in the range of 100 to 500 nM.

For the compound `O=C1C=CC(=O)c2c(O)cccc21` [juglone], in experiment [1] (setting [5]), the half-inhibitory concentration (IC50) lay in the range of 100 to 500 nM.

As for `CN(C)C[C@@H]1CCn2cc(c3ccccc32)C2=C(C(=O)NC2=O)c2cn(c3ccccc23)CCO1` [Ly333531 (ruboxistaurin), ruboxistaurin], in experiment [1] (low potency agents), the IC50 is 500 to 1000 nM.

On to `Cc1ccc(=O)n(-c2ccccc2)c1` [pirfenidone], for which the concentration for half-maximal inhibition (IC50) in experiment [1] (setting [5]) lay in the range of 1 to 100 nM.

As to `COc1cc([C@@H]2c3cc4c(cc3[C@@H](O[C@@H]3O[C@@H]5CO[C@@H](C)O[C@H]5[C@H](O)[C@H]3O)[C@H]3COC(=O)[C@H]23)OCO4)cc(OC)c1O` [etoposide, Etoposide], the “concentration known to be lethal” value in experiment [2] was 10^−5 M.

Turning to `CC(=O)O[C@H]1C(=O)[C@@]2(C)[C@H]([C@H](OC(=O)c3ccccc3)[C@]3(O)C[C@H](OC(=O)[C@H](O)[C@@H](NC(=O)c4ccccc4)c4ccccc4)C(C)=C1C3(C)C)[C@]1(OC(C)=O)CO[C@@H]1C[C@@H]2O` [paclitaxel], the “IL-1 induction of collagenase and stromelysin RNA levels in chondrocytes” value in experiment [3] is reported as “inhibited”. Further, the “IL-1 induced binding activity in lysates from chondrocytes” value in experiment [4] is “decreased”.

Consider `Nc1nc(Cl)nc2c1ncn2[C@H]1C[C@H](O)[C@@H](CO)O1` [cladribine], for which the IC50 in experiment [1] (setting [5]) was 100 to 500 nM.

As to `COc1cccc2c1C(=O)c1c(O)c3c(c(O)c1C2=O)C[C@@](O)(C(=O)CO)C[C@@H]3O[C@H]1C[C@H](N)[C@H](O)[C@H](C)O1` [doxorubicin, Doxorubicin], the “concentration known to be lethal” value in experiment [2] is reported as 10^−4 M.

For the compound `COc1ccc(C[C@H](N)C(=O)N[C@H]2[C@@H](O)[C@H](n3cnc4c(N(C)C)ncnc43)O[C@@H]2CO)cc1` [puromycin], the IC50 in experiment [1] (setting [5]) fell in the range of 100 to 500 nM.

Regarding `CCC(=O)O[C@]1(C(=O)CCl)[C@@H](C)C[C@H]2[C@@H]3CCC4=CC(=O)C=C[C@]4(C)[C@@]3(F)[C@@H](O)C[C@@]21C` [clobetasol propionate], the concentration for half-maximal inhibition (IC50) in experiment [1] (setting [5]) lay within 1 to 100 nM.

With `CC1=C(/C=C/C(C)=C/C=C/C(C)=C\C(=O)O)C(C)(C)CCC1` [isotretinoin], the IC50 in experiment [1] (setting [5]) lay within 1 to 100 nM.

Regarding `CCC1=C[C@@H]2CN(C1)Cc1c([nH]c3ccccc13)[C@@](C(=O)OC)(c1cc3c(cc1OC)N(C)[C@H]1[C@@](O)(C(=O)OC)[C@H](OC(C)=O)[C@]4(CC)C=CCN5CC[C@]31[C@@H]54)C2` [vinorelbine], the IC50 in experiment [1] (setting [5]) was in the range of 1 to 100 nM.

`COC(=O)C[C@](O)(CCCC(C)(C)O)C(=O)O[C@@H]1C(OC)=C[C@]23CCCN2CCc2cc4c(cc2[C@H]13)OCO4` [homoharringtonine]: in experiment [1] (setting [5]), the IC50 lay within 1 to 100 nM.

`Nc1ncn([C@@H]2O[C@H](CO)[C@@H](O)[C@H]2O)c(=O)n1` [5-azacytidine]: in experiment [1] (low potency agents), the IC50 lay within 500 to 1000 nM.

`O=C1c2c(O)ccc(O)c2C(=O)c2c(NCCNCCO)ccc(NCCNCCO)c21` [mitoxantrone]: in experiment [2], the “concentration known to be lethal” value is given as 10^−5 M.
